Consider 2 compounds from article PMC10619691, “Effect of cyclic substituents on the anti-cancer activity and DNA interaction of ruthenium(II) bis-phenanthroline dipyridoquinoline” (Frontiers in Molecular Biosciences, 2023).

SMILES strings stand for the structures.

By IC50 is commonly meant the concentration that gives 50% inhibition. High values mean weaker potency, low ones greater potency.

Test [1] relates to MDA-MB-231 (TNBC). Briefly: sulphorhodamine B (SRB) cytotoxicity assay. The test is classed as cell-based, human. The settings on record: 72 h incubation, mean ± SEM. Here is the method:
(§1) The cytotoxicity profile of the ruthenium complexes […]-572, and POW-12A was assessed in various cancer cell lines, namely, human cervical cancer HeLa, prostate cancer cell line DU145, breast cancer cell line MDAMB231MB231, ovarian cancer cell line A2780, and cisplatin-resistant ovarian cancer cell line A2780-CP70, using the preferred screen of the National Cancer Institute, the sulphorhodamine (SRB) dye assay, and the trypan blue cell viability assay ([Skehan et al., 1990]; [Houghton et al., 2007]; [Strober, 2001]). To determine their selective toxicity profile, these complexes were also tested in a normal prostate cell line (PTN1A). From the similarity in chemical structures of the compounds, we deduced that a structure-activity relationship study will help elucidate key properties involved in the cytotoxic activity of this class of metal complexes. The sulphorhodamine B (SRB) assay was used to evaluate the cytotoxicity of each cancer line after treating them with the metal complexes in line with the previously established protocol ([Skehan et al., 1990]). A cell density of 3 × 10^4 cells/mL was treated with various concentrations (3, 10, 30, 50, and 100 μM) of each ruthenium complex by 1:200 dilutions of stock solutions (in DMSO) in culture media, using DMSO as a control. Then, 100 μL of the cell-drug suspension was added to the respective wells of a 96-well plate and incubated at 37°C for 72 h in a CO2-containing incubator. Following this, the cells were fixed using 25 ul of Carnoy's solution and left in the fridge (4°C) for 1 h. The plates were then rinsed with running water and tapped on paper to remove dead cells. The cells were then stained with 100 μL of sulphorhodamine B dye and left for 30 min, after which the dye was washed off using 1% acetic acid, and the plate was left to dry in the oven (60°C). The stained cells were then treated with 100 μL of Tris base (10 mM, pH 10) to solubilize the dye stain. Finally, the plates were analyzed using an Omega plate reader. Each assay was conducted in triplicate. % Cell response=Average of treated cells / Average of control cells x 100.
On the technique in general: The SRB assay estimates cell density from bound dye.

The test system of test [2] is DU145 prostate cancer. Briefly: sulphorhodamine B (SRB) cytotoxicity assay. As to conditions: 72 h incubation, mean ± SEM. The class given is cell-based, human. Here is the method:
as §1

In test [3] the test system is A280-CP70 cisplatin-resistant ovarian cancer. Nature of the test: sulphorhodamine B (SRB) cytotoxicity assay. The class given is cell-based, human. As to conditions: SRB assay, 72 h incubation; mean ± SEM. Here is the method: as §1
The test system of test [4] is HeLa cervical cancer. Nature of the test: sulphorhodamine B (SRB) cytotoxicity assay. The test is classed as cell-based, human. The settings on record: 72 h incubation, mean ± SEM. Here is the method:
as §1

The test system of test [5] is PNT1A normal prostate. Briefly: sulphorhodamine B (SRB) cytotoxicity assay. As to conditions: for IC50: SRB assay, 72 h incubation, mean ± SEM. The test is classed as cell-based, human. Here is the method: as §1
Test [6] has as its system A2780 ovarian cancer. Briefly: sulphorhodamine B (SRB) cytotoxicity assay. The class given is cell-based, human. The settings on record: for IC50: SRB assay, 72 h incubation, mean ± SEM. As to the method:
as §1

Test [7] has as its system HS DNA. Briefly: DNA binding by fluorescence (emission) titration. The settings on record: for binding constant / binding site size: emission titrations; for n′ (binding site size): titrating concentrated HS DNA into 5 μM solutions of ruthenium complex, direct fitting. The arrangement: species or system herring. The source says:
VNK-754 is a structural analog of [Ru(phen)2dpq]^2+, a complex that intercalates the dpq (dpq = dipyrido[3,2-f:2′,3′-h]quinoxaline) ligand from the minor groove ([Greguric et al., 1997]). The dpq ligand presents a sufficiently large planar surface to allow classical intercalation, and it might be expected that extending the surface with substituents would enhance such binding. However, while this is observed with the addition of aromatic rings, as in the case of [Ru(phen)2dppz]^2+, this may not be true for the addition of a saturated ring that distorts the planarity of the extended ring system (Figure 6). Studies were thus undertaken to establish the binding modes of POW-12A and VNK-572. All complexes bound strongly to DNA, and binding constants and binding site sizes were determined from emission titrations to be 1.91 × 10^6 M^–1 and 0.38 Ru/base for POW-12A, and 1.46 × 10^6 M^–1 and 0.24 Ru/base for VNK-572 (Table 3). […] The smallest binding site size a pure intercalator can have is four bases. The binding site size of POW-12A is smaller than four bases; this is not consistent with binding via pure intercalation.
PBS buffer was prepared with NaCl (137 mM), KCl (2.70 mM), Na2HPO4 (10.1 mM), and KH2PO4 (1.77 mM) in nanopure water. Using HCl, the pH was adjusted to 7.40. PBS buffer was used for all photophysical experiments. For linear dichroism experiments, a PBS buffer without potassium was used. Solutions of open-circle and supercoiled φX174 DNA were obtained from New England Biolabs. Sodium salts of high-molecular-weight herring sperm (HS-DNA) and calf thymus (CT-DNA) from Sigma were dissolved in PBS buffer, and concentrations were determined spectrophotometrically using the extinction coefficient ε260 nm = 6600 M^−1 cm^−1 for nucleobase concentration. The alternating polynucleotide polydeoxyadenylic-thymidylic acid ([poly(dA-dT)]2) and polydeoxyguanylic-cytidylic acid ([poly(dG-dC)]2) from NUNABIO ([Whitfield et al., 2015]) were dissolved in PBS buffer, and their concentrations were determined using the extinction coefficients ε262 nm = 6700 M^−1 cm^−1 and ε254 nm = 8400 M^−1 cm^−1, respectively. Direct fitting to raw data from fluorescence titration experiments (titrating concentrated HS DNA into 5 μM solutions of ruthenium complex) was used to give the binding constant (KB) and binding site size (n′). The following equation is derived from the Scatchard equation: ∝^2∙KB/PD−KB/PD+1/PDDt+KB∙n^′+KB∙n^′ = 0, where Db/Dt=I−I0/I∞−I0 , PD is the phosphate: dye ratio, KB is the binding constant (M^−1), and n′ is the binding site size (bases per compound). The equation is in the form of a quadratic equation, where a = KB[Dt]/PD, b = −(KB/PD+1/PD[Dt ] +KB∙n′), and c = KBn′. The positive solution to this quadratic equation gives values for α, from which theoretical intensities at each PD are calculated. The least squares regression method was used, minimizing the squared residuals of the theoretical and experimental intensities and floating the values of KB, I0, I∞, and n′.

Turning to `F[P-](F)(F)(F)(F)F.F[P-](F)(F)(F)(F)F.[Ru+2].c1cnc2c(c1)c1ncc3c(c1c1cccnc12)CCC3.c1cnc2c(c1)ccc1cccnc12.c1cnc2c(c1)ccc1cccnc12` [POW-12A], the IC50 in test [1] is above 100 µM; in test [2], 35 ± 6.93 µM; in test [3], 35 ± 3.47 µM; in test [4], 63 ± 6.35 µM; in test [5], above 100 µM; in test [6], 12 ± 1.73 µM. Moreover, in test [7], the binding constant is recorded as 1.91 × 10^6 M^–1. In test [7], this compound showed a binding site size of 0.38 Ru/base. The “n′ (binding site size)” value in test [7] is listed as 2.63 bases per compound.

`F[P-](F)(F)(F)(F)F.F[P-](F)(F)(F)(F)F.[Ru+2].c1cnc2c(c1)c1ncc3c(c1c1cccnc12)CCCC3.c1cnc2c(c1)ccc1cccnc12.c1cnc2c(c1)ccc1cccnc12` [VNK-572]: the IC50 was above 100 µM in test [1]; 19 ± 2.31 µM in test [2]; 15 ± 2.89 µM in test [3]; 52 ± 6.35 µM in test [4]; above 100 µM in test [5]; 10 ± 4.04 µM in test [6]. In addition, the “fold difference in sensitivity between normal prostate cells (PNT1A) and prostate cancer cell line DU145” value in test [5] (from SRB IC50 values) is “more than five-fold”. Further, the “fold difference between the anti-cancer activities of VNK-754 and VNK-572” value in test [6] (more susceptible cancer cell lines (A2780 and DU145)) is “seven-fold”. In addition, in test [7], the binding constant was 1.46 × 10^6 M^–1. Besides, the binding site size in test [7] is 0.24 Ru/base. In addition, the “n′ (binding site size)” value in test [7] is listed as 4.16 bases per compound.
